According to PubChem BioAssay AID328 (DTP/NCI, 2004):
“And” between values parts separate entries of the source, which are not always exact repeats. Equal entries are not always repeated. Toxic doses and inconclusive results are not listed.

Tested on: BDF1 mice, P388 leukemia ip, median survival T/C
Assay: NCI In Vivo Anticancer Drug Screen. Data for tumor model P388 Leukemia (intraperitoneal) in B6D2F1 (BDF1) mice
Conditions: endpoint: median survival time, higher = longer survival
Procedure, shortened: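 Read-out is survival of treated animals expressed relative to the vehicle group, as a T/C ratio.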

[1] = dose: 100.0 mg/kg/injection, schedule: Q04DX003 (ip), vehicle: saline with Tween-80
[2] = dose: 200.0 mg/kg/injection, schedule: Q04DX003 (ip), vehicle: saline with Tween-80
[3] = dose: 25.0 mg/kg/injection, schedule: Q01DX009 (ip), vehicle: saline with Tween-80
[4] = dose: 50.0 mg/kg/injection, schedule: Q01DX009 (ip), vehicle: saline
[5] = dose: 50.0 mg/kg/injection, schedule: Q04DX003 (ip), vehicle: saline with Tween-80
[6] = dose: 100.0 mg/kg/injection, schedule: Q01DX009 (ip), vehicle: saline with Tween-80
[7] = dose: 20.0 mg/kg/injection, schedule: Q01DX009 (ip), vehicle: Klucel (hydroxypropylcellulose) (HPC)
[8] = dose: 25.0 mg/kg/injection, schedule: Q04DX003 (ip), vehicle: saline with Tween-80
[9] = dose: 50.0 mg/kg/injection, schedule: Q01DX009 (ip), vehicle: saline with Tween-80

**Q.** `Nc1nc(N)c(N=Cc2ccccc2)c(=O)[nH]1` was tested. Which T/C (dose: 100.0 mg/kg/injection, schedule: Q01DX001 (ip), vehicle: saline with Tween-80) did it give?
**A.** 108 % of control

**Q.** What about the T/C (dose: 200.0 mg/kg/injection, schedule: Q01DX001 (ip), vehicle: saline with Tween-80) of the same compound?
**A.** 88 % of control

**Q.** And the T/C (dose: 400.0 mg/kg/injection, schedule: Q01DX001 (ip), vehicle: saline with Tween-80)?
**A.** 97 % of control

**Q.** What does the source list for `C1CC[N-]CC1.[Cl][Pt+2][Cl].[NH-]C1CC1`?
**A.** T/C (dose: 1.5 mg/kg/injection, schedule: Q01DX005 (ip), vehicle: distilled water + Tween-80): 153 % of control; T/C (dose: 1.5 mg/kg/injection, schedule: Q01DX005 (ip), vehicle: water): 150 % of control; T/C (dose: 3.0 mg/kg/injection, schedule: Q01DX005 (ip), vehicle: water): 164 % of control; T/C (dose: 6.0 mg/kg/injection, schedule: Q01DX005 (ip), vehicle: distilled water + Tween-80): 157 % of control; T/C (dose: 6.0 mg/kg/injection, schedule: Q01DX005 (ip), vehicle: water): 185 % of control; T/C (dose: 12.0 mg/kg/injection, schedule: Q01DX005 (ip), vehicle: distilled water + Tween-80): 176 % of control; T/C (dose: 12.0 mg/kg/injection, schedule: Q01DX005 (ip), vehicle: water): 192 % of control

**Q.** Which results are given for `O=C1CN(c2ccccc2)CC(=O)N2C(c3ccccc3)CCCN12` (configuration not stated)?
**A.** T/C (dose: 50.0 mg/kg/injection, schedule: Q01DX005 (ip), vehicle: saline with Tween-80): 113 % of control; T/C (dose: 100.0 mg/kg/injection, schedule: Q01DX005 (ip), vehicle: saline with Tween-80): 97 % of control; T/C (dose: 200.0 mg/kg/injection, schedule: Q01DX005 (ip), vehicle: saline with Tween-80): 97 % of control

**Q.** Which results are given for `c1cnc2sccc2c1`?
**A.** T/C [1]: 100 % of control; T/C [2]: 109 % of control

**Q.** Which T/C (dose: 0.04 mg/kg/injection, schedule: Q01DX009 (ip), vehicle: saline + alcohol) does the source give for `COC(=O)C1=COC2OC3C(C(C)O)C(=O)OC34C=CC1C24` (configuration not stated) here?
**A.** 90 % of control

**Q.** And the T/C (dose: 0.2 mg/kg/injection, schedule: Q01DX009 (ip), vehicle: saline + alcohol)?
**A.** 95 % of control

**Q.** What about the T/C (dose: 1.0 mg/kg/injection, schedule: Q01DX009 (ip), vehicle: saline + alcohol) of the same compound?
**A.** 118 % of control

**Q.** What about the T/C (dose: 5.0 mg/kg/injection, schedule: Q01DX009 (ip), vehicle: saline + alcohol) of the same compound?
**A.** 118 % of control

**Q.** What does the source list for `O=C(CC(O)(C(F)(F)F)C(F)(F)F)c1ccco1`?
**A.** T/C (dose: 17.0 mg/kg/injection, schedule: Q01DX009 (ip), vehicle: saline): 100 % of control; T/C [3]: 123 % of control; T/C (dose: 33.0 mg/kg/injection, schedule: Q01DX009 (ip), vehicle: saline): 100 % of control; T/C [4]: 100 % of control; T/C [5]: 120 % of control; T/C (dose: 75.0 mg/kg/injection, schedule: Q01DX009 (ip), vehicle: saline): 100 % of control; T/C [6]: 123 % of control; T/C [1]: 120 % of control

**Q.** With `CC(=O)CC1c2c(ccc3c2OCO3)-c2ccc3cc4c(cc3c2N1C)OCO4` (configuration not stated) as the compound, how does the T/C (dose: 5.0 mg/kg/injection, schedule: Q01DX009 (ip), vehicle: Klucel (hydroxypropylcellulose) (HPC)) read?
**A.** 95 % of control

**Q.** And the T/C (dose: 10.0 mg/kg/injection, schedule: Q01DX009 (ip), vehicle: Klucel (hydroxypropylcellulose) (HPC))?
**A.** 110 % of control

**Q.** What about the T/C (dose: 13.0 mg/kg/injection, schedule: Q01DX010 (ip), vehicle: saline) of the same compound?
**A.** 100 % of control

**Q.** And the T/C [7]?
**A.** 120 % of control

**Q.** What about the T/C (dose: 20.0 mg/kg/injection, schedule: Q01DX010 (ip), vehicle: saline) of the same compound?
**A.** 105 % of control

**Q.** What about the T/C (dose: 30.0 mg/kg/injection, schedule: Q01DX010 (ip), vehicle: saline) of the same compound?
**A.** 110 % of control

**Q.** What about the T/C (dose: 40.0 mg/kg/injection, schedule: Q01DX009 (ip), vehicle: Klucel (hydroxypropylcellulose) (HPC)) of the same compound?
**A.** 115 % of control

**Q.** What does the source list for `c1ccc(-c2c[nH]c(-c3ccccc3)c2)cc1`?
**A.** T/C (dose: 100.0 mg/kg/injection, schedule: Q04DX003 (ip), vehicle: Klucel (hydroxypropylcellulose) (HPC)): 104 % of control; T/C (dose: 200.0 mg/kg/injection, schedule: Q04DX003 (ip), vehicle: Klucel (hydroxypropylcellulose) (HPC)): 109 % of control; T/C (dose: 400.0 mg/kg/injection, schedule: Q04DX003 (ip), vehicle: Klucel (hydroxypropylcellulose) (HPC)): 109 % of control

**Q.** With `Cc1cc(N(CCCl)CCCl)ccc1N=Nc1ccccc1C(=O)[O-].Cc1cc(N(CCCl)CCCl)ccc1N=Nc1ccccc1C(=O)[O-].[Cu+2]` as the compound, how does the T/C (dose: 16.5 mg/kg/injection, schedule: Q04DX003 (ip), vehicle: saline with Tween-80) read?
**A.** 240 % of control and 105 % of control

**Q.** What about the T/C [8] of the same compound?
**A.** 263 % of control and 165 % of control

**Q.** And the T/C (dose: 37.5 mg/kg/injection, schedule: Q04DX003 (ip), vehicle: saline with Tween-80)?
**A.** 227 % of control

**Q.** `Cc1ccc(C(=O)C2(c3ccc(C)cc3)OC(c3ccc(C)cc3)=C(c3ccc(C)cc3)S2)cc1` (configuration not stated) was tested. Which T/C (dose: 50.0 mg/kg/injection, schedule: Q01DX009 (ip), vehicle: other) did it give?
**A.** 104 % of control

**Q.** What about the T/C (dose: 100.0 mg/kg/injection, schedule: Q01DX009 (ip), vehicle: other) of the same compound?
**A.** 100 % of control

**Q.** And the T/C (dose: 200.0 mg/kg/injection, schedule: Q01DX009 (ip), vehicle: other)?
**A.** 100 % of control

**Q.** `CCO/C(N)=N/OS(=O)(=O)c1ccccc1` was tested. Which T/C [1] did it give?
**A.** 99 % of control

**Q.** And the T/C [2]?
**A.** 96 % of control

**Q.** What about the T/C (dose: 400.0 mg/kg/injection, schedule: Q04DX003 (ip), vehicle: saline with Tween-80) of the same compound?
**A.** 98 % of control

**Q.** What does the source list for `CC(=O)[C@H]1CC[C@H]2[C@@H]3C[C@H](C)C4=CC(=O)CC[C@]4(C)[C@@]3(F)[C@@H](O)C[C@]12C`?
**A.** T/C [3]: 118 % of control; T/C [9]: 109 % of control; T/C [6]: 104 % of control and 109 % of control

**Q.** What does the source list for `CC1OC(=O)C(C(C)C)NC(=O)C(C(C)C)OC(=O)C(C(C)C)NC(=O)C(C)OC(=O)C(C(C)C)NC(=O)C(C(C)C)OC(=O)C(C(C)C)NC(=O)C(C)OC(=O)C(C(C)C)NC(=O)C(C(C)C)OC(=O)C(C(C)C)NC1=O` (configuration not stated)?
**A.** T/C (dose: 3.12 mg/kg/injection, schedule: Q04DX003 (ip), vehicle: Klucel (hydroxypropylcellulose) (HPC)): 100 % of control; T/C (dose: 4.5 mg/kg/injection, schedule: Q01DX009 (ip), vehicle: saline): 162 % of control; T/C (dose: 6.25 mg/kg/injection, schedule: Q04DX003 (ip), vehicle: Klucel (hydroxypropylcellulose) (HPC)): 107 % of control; T/C (dose: 10.0 mg/kg/injection, schedule: Q01DX009 (ip), vehicle: saline): 183 % of control; T/C (dose: 12.5 mg/kg/injection, schedule: Q04DX003 (ip), vehicle: Klucel (hydroxypropylcellulose) (HPC)): 169 % of control; T/C (dose: 15.0 mg/kg/injection, schedule: Q01DX009 (ip), vehicle: saline): 177 % of control; T/C [7]: 165 % of control

**Q.** Which results are given for `CCCCCC(O)CCCCC`?
**A.** T/C [6]: 104 % of control; T/C (dose: 200.0 mg/kg/injection, schedule: Q01DX009 (ip), vehicle: saline with Tween-80): 95 % of control

**Q.** `CCC1(Br)OC1=O` (configuration not stated) was tested. Which T/C (dose: 150.0 mg/kg/injection, schedule: Q01DX009 (ip), vehicle: saline) did it give?
**A.** 115 % of control

**Q.** What about the T/C (dose: 335.0 mg/kg/injection, schedule: Q01DX009 (ip), vehicle: saline) of the same compound?
**A.** 115 % of control

**Q.** Which T/C [3] does the source give for `CCOC(=O)c1cc2ccccc2oc1=O` here?
**A.** 95 % of control

**Q.** What about the T/C [8] of the same compound?
**A.** 115 % of control

**Q.** What about the T/C [9] of the same compound?
**A.** 100 % of control

**Q.** And the T/C [5]?
**A.** 105 % of control

**Q.** What about the T/C [1] of the same compound?
**A.** 105 % of control

**Q.** How did the T/C [4] turn out when `CC(C)=C=CCN(C)Cc1ccccc1` was run?
**A.** 99 % of control

**Q.** What about the T/C (dose: 100.0 mg/kg/injection, schedule: Q01DX009 (ip), vehicle: saline) of the same compound?
**A.** 103 % of control
